Like-named read-outs stand apart in the source and are kept apart here. Ends that are not written are not given here.
Experiments:
MEFs = experiment: Mitochondrial fusion by mixing of organellar contents after PEG-mediated cell fusion; format: cell-based, murine; conditions: 1 μM for 6 hours
Protocol: MEFs or neurons were grown on chamber slides and infected with recombinant adenoviri for 48-72 hours unless otherwise indicated. MEFs were stained with MitoTracker Green (200 nM, Invitrogen M7514) and Blue Hoechst (10 mg/ml, Invitrogen H3570), with or without tetramethylrhodamine ethyl ester (TMRE; 200 nM, Invitrogen T-669). Neuronal mitochondria were labeled with adenoviral-expressed mitoGFP plus TMRE, or with adeno-mitoDsRed for time-lapse studies. […] Mitochondrial fusion was measured at 2 and 6 hours after PEG-mediated cell fusion of MEFs treated 48 hours previously with adeno-mitoGFP or adeno-mitoDsRed (Chen et al., 2005, J Biol Chem, 280:26185-26192). Laser confocal fluorescence was excited with 561 nm (MitoTracker Green, GFP, FITC), 637 nm (TMRE, LysoTracker Red, mcherry-Parkin, MitoTracker Orange) or 408 nm (Blue Hoechst) laser diodes. Image analysis—Mitochondrial aspect ratio was calculated using automated edge detection and Image J software (Song et al., 2015, Cell Metab, 21:273-285). Mitochondrial depolarization was calculated as % of green mitochondria visualized on MitoTracker Green and TMRE merged images, expressed as green/(green+yellow mitochondria)×100. Parkin aggregation was calculated as % of cells with mitochondrial clumping of mcherry-Parkin (Song et al., 2015, Cell Metab, 21:273-285). […]

Opa1 and Drp1 = experiment: Immunoblot analysis of mitochondrial dynamics proteins in MEFs; format: cell-based, murine; conditions: immunoblot 4 hours after application to MEFs; data not shown
WT MEFs = format: cell-based, murine; conditions: for mitochondrial aspect ratio (effect of TAT fusion construct): WT MEFs, varying concentrations / time course; for EC50: mitochondrial aspect ratio dose response; for EC50 / half-time for mitochondrial shape change: MEFs; for half-time for mitochondrial shape change: time course
Protocol: MEFs or neurons were grown on chamber slides and infected with recombinant adenoviri for 48-72 hours unless otherwise indicated. MEFs were stained with MitoTracker Green (200 nM, Invitrogen M7514) and Blue Hoechst (10 mg/ml, Invitrogen H3570), with or without tetramethylrhodamine ethyl ester (TMRE; 200 nM, Invitrogen T-669). Neuronal mitochondria were labeled with adenoviral-expressed mitoGFP plus TMRE, or with adeno-mitoDsRed for time-lapse studies. Cover slips were loaded onto a chamber (Warner instrument, RC-40LP) in modified Krebs-Henseleit buffer (138 mM NaCl, 3.7 mM KCl, 1.2 mM KH2PO4, 15 mM Glucose, 20 mM HEPES and 1 mM CaCl2) at room temperature and visualized on a Nikon Ti Confocal microscope equipped with a 60×1.3 NA oil immersion objective. For mitophagy studies MEFs were stained with MitoTracker Green and infected with adeno-mcherry Parkin or stained with LysoTracker Deep Red (50 nM, Invitrogen L-7528); carbonylcyanide p-trifluoromethoxyphenylhydrazone (FCCP, 10 μM for 1 hour) was applied as a positive control. Mitochondrial fusion was measured at 2 and 6 hours after PEG-mediated cell fusion of MEFs treated 48 hours previously with adeno-mitoGFP or adeno-mitoDsRed (Chen et al., 2005, J Biol Chem, 280:26185-26192). Laser confocal fluorescence was excited with 561 nm (MitoTracker Green, GFP, FITC), 637 nm (TMRE, LysoTracker Red, mcherry-Parkin, MitoTracker Orange) or 408 nm (Blue Hoechst) laser diodes. Image analysis—Mitochondrial aspect ratio was calculated using automated edge detection and Image J software (Song et al., 2015, Cell Metab, 21:273-285). Mitochondrial depolarization was calculated as % of green mitochondria visualized on MitoTracker Green and TMRE merged images, expressed as green/(green+yellow mitochondria)×100. Parkin aggregation was calculated as % of cells with mitochondrial clumping of mcherry-Parkin (Song et al., 2015, Cell Metab, 21:273-285). Lysosomal engulfment of mitochondria was identified by colocalization of LysoTracker Red and MitoTracker Green (Song et al., 2015, Cell Metab, 21:273-285).
TAT47-57 is a well-characterized “carrier” peptide able to promote active cellular peptide uptake. Specifically, a linear peptide was constructed in which the hMfn2 modulatory peptide was linked by a peptide bond at its C-terminus to a Gly-Gly dipeptide linker whose C-terminus was linked by a peptide bond to the TAT47-57 peptide having the sequence YGRKKRRQRRR (SEQ ID NO:25). The resultant linear fusion-promoting peptide conjugate comprises the sequence […] (SEQ ID NO:23). The fusion-inhibiting linear peptide has the sequence […] (SEQ ID NO:24). Except for dose-response studies, stock concentrations of TAT-minipeptides in sterile water were applied to cultured MEFs at a dilution factor of 1:2000 to achieve final concentrations of 1 or 5 μM.
The functional consequences of the Mfn2 HR1-derived peptides were defined after synthesizing them as C-terminal TAT47-57 conjugates to promote active cellular uptake. Mitochondrial fusion can be detected by mixing of organellar contents (Chen et al., 2005, J Biol Chem, 280:26185-26192). […] (FIG. 8A, scale bar is 20 microns). Mitochondrial aspect ratio changed in parallel with mitochondrial mixing (FIG. 8B).
Experiments were performed with these shortened variants fused to a carrier peptide via a linker according to the methods described in Example 5 above. Wildtype MEFs were treated with varying concentrations of peptide fusion constructs described in Table 4 and mitochondrial aspect ratios determined. A dose response curve for TetherX-N and -C variants are shown in FIG. 17A (squares are data for TetherX-N and circles are for TetherX-C). The dose response curve for GoFuse-N and -C variants are shown in FIG. 17B (squares are for GoFuse-N and circles are for GoFuse-C).

human Mfn2 = target: T1, human Mfn2 (Homo sapiens, UniProt O95140); experiment: Carboxypeptidase protection assay on mitochondrial membranes; format: biochemical; set-up: from tissue; host or cells: mitochondrial membranes of transgenic mouse hearts overexpressing human Mfn2; conditions: 200 ng/ml carboxypeptidases A and B; mouse heart mitochondrial membranes overexpressing human Mfn2
T1 sequence (O95140 1-757): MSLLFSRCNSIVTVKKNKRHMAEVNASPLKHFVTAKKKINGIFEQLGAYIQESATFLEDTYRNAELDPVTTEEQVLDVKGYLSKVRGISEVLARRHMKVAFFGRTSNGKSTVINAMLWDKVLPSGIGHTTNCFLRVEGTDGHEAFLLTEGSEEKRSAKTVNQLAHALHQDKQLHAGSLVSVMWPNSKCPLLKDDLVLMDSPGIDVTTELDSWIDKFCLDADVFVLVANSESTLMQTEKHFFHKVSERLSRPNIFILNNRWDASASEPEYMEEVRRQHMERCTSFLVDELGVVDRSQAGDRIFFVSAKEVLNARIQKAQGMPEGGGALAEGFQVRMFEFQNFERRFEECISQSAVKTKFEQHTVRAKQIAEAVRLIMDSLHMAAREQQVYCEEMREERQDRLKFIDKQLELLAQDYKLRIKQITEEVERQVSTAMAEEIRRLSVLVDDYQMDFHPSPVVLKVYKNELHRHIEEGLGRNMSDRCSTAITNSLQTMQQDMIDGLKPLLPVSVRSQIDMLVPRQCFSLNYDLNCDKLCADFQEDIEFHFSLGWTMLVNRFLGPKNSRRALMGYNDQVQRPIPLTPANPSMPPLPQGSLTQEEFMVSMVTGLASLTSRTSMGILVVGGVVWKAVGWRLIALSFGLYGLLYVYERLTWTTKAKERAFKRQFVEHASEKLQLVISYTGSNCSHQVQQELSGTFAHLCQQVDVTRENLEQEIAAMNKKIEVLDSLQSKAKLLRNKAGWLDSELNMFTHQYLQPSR
Protocol: Mitochondrial membranes were prepared (Song et al., 2015, Cell Metab, 21:273-285) from mouse hearts overexpressing human Mfn2 (Gong et al., 2015, Science, 350:aad2459) and digested with 200 ng/ml each carboxypeptidases A and B (Sigma-Aldrich) for increasing times at room temperature, followed by immunoblotting using an antibody (Abcam ab56889) specific to hMfn2 HR2.

Row | Sequence | rate of mitochondrial content mixing (mitochondrial fusion) (MEFs) | abundance of Opa1 and Drp1 (Opa1 and Drp1) | mitochondrial aspect ratio (effect of TAT fusion construct) (WT MEFs) | EC50 (WT MEFs; read-out: EC50 for mitochondrial shortening (suppressed fusion)) | half-time for mitochondrial shape change (WT MEFs) | carboxyl terminal-directed proteolytic digestion of Mfn2 (exposure of C-terminal HR2 domain) (human Mfn2) | EC50 (WT MEFs; read-out: EC50 for mitochondrial elongation (enhanced fusion))
1 | QDRLKFIDKQGELLAQDYKLRGGYGRKKRRQRRR [TAT-398-418Gly] | completely suppressed mitochondrial fusion | without altering Mfn2 GTPase activity or influencing the abundance | decreased mitochondrial aspect ratio | 0.25 ± 0.09 µM | approximately 2 hours | had the opposite effect | –
2 | QIAEAVRGIMDSLHMAARGGYGRKKRRQRRR [TAT-367-384Gly] | more than doubled | without altering Mfn2 GTPase activity or influencing the abundance | increased the mitochondrial aspect ratio | – | approximately 2 hours | accelerated carboxyl terminal-directed proteolytic digestion of Mfn2 | 0.28 ± 0.09 µM

Source: patent US10578610B2, “Peptide regulators of mitochondrial fusion and methods of use” (priority 2016, dated 2020)
